Experimental data taken from patent US20250129012A1, “ANTI-INFLAMMATORY AND ANALGESIC COMPOUNDS AND USE THEREOF” (JIANGSU ATOM BIOSCIENCE AND PHARMACEUTICAL CO., LTD., priority 2021, published 2025).
Read-outs that look alike come from different tables or passages of the source. Marks after values point to notes of the source that are not given here.

What was measured:
TNF-α [1] = assay: Inflammatory factor experiment B: TNF-α in knee synovial tissue (ELISA); assay type: in vivo, SD rats
TNF-α [2] = assay: Inflammatory factor experiment A: TNF-α in gouty arthritis rats; assay type: in vivo, SD rats
Experimental: Compounds 14, 17 and 26 were prepared by grinding with 0.5% CMC-Na before administration and into a suspension for gavage at the corresponding concentration (0.06 mg/mL), with a dosage volume of 10 mL/kg. Colchicine, purchased from Sun Chemical Technology (Shanghai) Co., Ltd. with batch no. 49ETRRAS, and was prepared by grinding with 0.5% CMC-Na before administration and into a suspension for gavage at the corresponding concentration (0.06 mg/mL), with a dosage volume of 10 mL/kg.
The compounds in each group were prepared into a suspension of the corresponding concentration, and the dosage volume was 10 mL/kg.
The crystalline arthritis model was prepared by intra-articular injection of urate crystals (40 mg/mL in the left ankle joint of each rat). Different doses of the test compounds were given separately by gavage administration. The day of administration was defined as day 1 of the experiment, and the compounds were administered once a day for 10 consecutive days (pre-administration of the drug for 7 days prior to modeling, modeling on day 8, and continuation of the drug for 3 days). The experiment ended on day 10. […]

[3] = system: gouty arthritis rats (sodium urate, right ankle and knee joint cavities); assay: Pharmacodynamics experiment B on gouty arthritis rats: ankle swelling rate; assay type: in vivo, SD rats; details: for change in vivo at 0.6 mg/kg / change in vivo at 1.2 mg/kg: Rattus norvegicus, po, read-out: Swelling rate (ankle)
How it was run: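 Male SD rats dosed by gavage at 0.6 mg/kg (0.5% CMC-Na suspension) daily for 7 days before and 3 days after injection of 0.2 mL sodium urate solution into right ankle and knee joints. Ankle circumference measured before and 2-48 h after modeling; swelling rate = swelling degree/baseline ×100%, mean values.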

IL-1β = assay: Inflammatory factor experiment B: IL-1β in knee synovial tissue (ELISA); assay type: in vivo, SD rats
[4] = death 35 h after ingestion; cited from earlier work
[5] = system: gouty arthritis in rats (urate crystals, left ankle joint); assay: Pharmacodynamics experiment A on gouty arthritis in rats: paw volume; assay type: in vivo, SD rats; details: for Paw volume: Mean ± SEM
Experimental: Compounds 2, 17, 26 and 27 were prepared by grinding with 0.5% CMC-Na into a suspension of the corresponding concentration (0.06 mg/mL) for gavage before administration, and the volume of administration was 10 mL/kg. […] Before use, 0.5% CMC-Na was used for grinding and prepared into a suspension of the corresponding concentration (0.06 mg/mL) for gavage, and the volume of drug administered was 10 mL/kg.
Each group of subjects was prepared into a suspension of the corresponding concentration, and the administration volume was 10 mL/kg.
The crystalline arthritis model was prepared by intra-articular injection of urate crystals (40 mg/mL, in the left ankle joint of each rat). Different doses of the test drug were given separately by gavage administration. The day of administration was defined as day 1 of the experiment, and the drug was administered once a day for 10 consecutive days (pre-administration of the drug for 7 days prior to modeling, modeling on day 8, and continuation of the drug for 3 days). The experiment ended on day 10.
Paw volume was measured before administration, before urate injection, and 2, 4, 8, 10, 24, and 48 h after injection.
The data obtained from the experiment were statistically analyzed using IBM SPSS Statistics 22.0. All measurements were expressed as Mean±S.E.M s. The data were analyzed using SPSS 22.0 statistical software and variance chi-square test was performed on the parameters.

[6] = system: gouty arthritis rats (sodium urate, right ankle and knee joint cavities); assay: Pharmacodynamics experiment B on gouty arthritis rats: gait score; assay type: in vivo, SD rats; details: for Gait Score: mean
How it was run: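 Male SD rats (180-220 g) received test compounds by gavage as 0.5% CMC-Na suspensions, once daily for 7 days before modeling and for 3 days afterward. Gouty arthritis was induced by injecting 0.2 mL sodium urate solution into the right ankle and knee joint cavities. Gait was graded 0-3 using modified Coderre criteria, and group mean scores were compared with the model group by ANOVA-Dunnett T-test (P<0.05).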

[7] = compounds 0.6 mg/kg, colchicine 0.6 and 1.2 mg/kg

COc1cc2c(c(OC)c1OC)-c1ccc(OC)c(=O)cc1[C@@H](NC(C)=O)CC2 [colchicine, reference compound]
inhibition in vivo at 0.6 mg/kg (TNF-α [1]; Rattus norvegicus, po, synovial tissue of knee joints, 48 h after modeling, dose 0.6 mg/kg, read-out: TNF-α percentage decrease %): 58% | inhibition in vivo at 1.2 mg/kg (TNF-α [1]; Rattus norvegicus, po, synovial tissue of knee joints, 48 h after modeling, dose 1.2 mg/kg (high dose group), read-out: TNF-α percentage decrease %): 52.5% | TNF-α level after modeling, in words (TNF-α [1]; [7]): could reduce the TNF-αlevel | TNF-α level after modeling, in words (TNF-α [2]; 0.6 mg/kg): can reduce the TNF-α level | Decreased TNF-α percentage % (TNF-α [2]; synovial tissue of knee joints, dose 0.6 mg/kg gavage, day 10): 93.73% | change in vivo at 0.6 mg/kg ([3]; 2 h): 10.5% | change in vivo at 1.2 mg/kg ([3]; 2 h): 8.97% | change in vivo at 0.6 mg/kg ([3]; 4 h): 15.7% | change in vivo at 1.2 mg/kg ([3]; 4 h): 14.9% | change in vivo at 0.6 mg/kg ([3]; 8 h): 20.6% | change in vivo at 1.2 mg/kg ([3]; 8 h): 17.2% | change in vivo at 0.6 mg/kg ([3]; 10 h): 23.4% | change in vivo at 1.2 mg/kg ([3]; 10 h): 19.4% | change in vivo at 0.6 mg/kg ([3]; 24 h): 24.4% | change in vivo at 1.2 mg/kg ([3]; 24 h): 19.8% | change in vivo at 0.6 mg/kg ([3]; 48 h): 12.1% | change in vivo at 1.2 mg/kg ([3]; 48 h): 9.29% | Ankle swelling rate versus model group, in words [3, 7]: significantly (P<0.01) reduced | inhibition in vivo at 0.6 mg/kg (IL-1β; Rattus norvegicus, po, synovial tissue of knee joints, 48 h after modeling, dose 0.6 mg/kg, read-out: IL-1β percentage decrease %): 74.2% | inhibition in vivo at 1.2 mg/kg (IL-1β; Rattus norvegicus, po, synovial tissue of knee joints, 48 h after modeling, dose 1.2 mg/kg (high dose group), read-out: IL-1β percentage decrease %): 63.1% | IL-1β level after modeling, in words (IL-1β; [7]): reduced IL-1β in synovial tissue | Dose with reported death cases [4]: 0.4 mg/kg | Paw volume versus model group, in words ([5]; 0.6 mg/kg gavage, time points after modeling): significantly smaller than those in the model group at 2 h, 4 h, 8 h, 10 h, and 48 h after modeling | Paw volume ([5]; 2 h after modeling, 0.6 mg/kg gavage): 2.44 ± 0.02*** cm^3 | Paw volume ([5]; 4 h after modeling, 0.6 mg/kg gavage): 2.45 ± 0.03** cm^3 | Paw volume ([5]; 8 h after modeling, 0.6 mg/kg gavage): 2.44 ± 0.04*** cm^3 | Paw volume ([5]; 10 h after modeling, 0.6 mg/kg gavage): 2.46 ± 0.04** cm^3 | Paw volume ([5]; 24 h after modeling, 0.6 mg/kg gavage): 2.46 ± 0.05 cm^3 | Paw volume ([5]; 48 h after modeling, 0.6 mg/kg gavage): 2.24 ± 0.03*** cm^3 | Paw volume ([5]; before modeling, 0.6 mg/kg gavage once a day): 2.18 ± 0.03 cm^3 | Gait Score ([6]; 2 h, dose 0.6 mg/kg gavage): 0 | Gait Score ([6]; 2 h, dose 1.2 mg/kg gavage (high dose group)): 0 | Gait Score ([6]; 4 h, dose 0.6 mg/kg gavage): 0.02* | Gait Score ([6]; 4 h, dose 1.2 mg/kg gavage (high dose group)): 0** | Gait Score ([6]; 8 h, dose 0.6 mg/kg gavage): 0.24* | Gait Score ([6]; 8 h, dose 1.2 mg/kg gavage (high dose group)): 0.1** | Gait Score ([6]; 10 h, dose 0.6 mg/kg gavage): 0.16** | Gait Score ([6]; 10 h, dose 1.2 mg/kg gavage (high dose group)): 0.18** | Gait Score ([6]; 24 h, dose 0.6 mg/kg gavage): 0.02* | Gait Score ([6]; 24 h, dose 1.2 mg/kg gavage (high dose group)): 0* | Gait Score ([6]; 48 h, dose 0.6 mg/kg gavage): 0.02 | Gait Score ([6]; 48 h, dose 1.2 mg/kg gavage (high dose group)): 0 | Gait versus model group, in words [6, 7]: significantly improved the gait of rats
